Assay results taken from ChEMBL document CHEMBL3763046 (Bioorg Med Chem, 2016).

What was measured:
Mus musculus [1] = assay: AUC (0 to infinity) in mouse at 20 mg/kg, iv or 35 mg/kg, po administered as single dose by LC/MS/MS analysis; assay type: ADME, organism-based; details: in vivo
Mus musculus [2] = assay: Half life in mouse at 20 mg/kg, iv or 35 mg/kg, po administered as single dose by LC/MS/MS analysis; assay type: ADME, organism-based; details: in vivo
Mus musculus [3] = assay: Apparent oral clearance in mouse at 35 mg/kg, po administered as single dose measured at 0.25 to 24 hrs by LC/MS/MS analysis; assay type: ADME, organism-based; details: in vivo
Mus musculus [4] = assay: Cmax in mouse at 35 mg/kg, po administered as single dose measured at 0.25 to 24 hrs by LC/MS/MS analysis; assay type: ADME, organism-based; parameters: dose 35 mg/kg, route oral; details: in vivo
[5] = Apparent volume of distribution during terminal phase in mouse at 35 mg/kg, po administered as single dose measured at 0.25 to 24 hrs by LC/MS/MS analysis; assay type: ADME, organism-based; details: in vivo, read-out: Vz/F
HT-29 [6] = assay: Cytotoxicity against human HT-29 cells after 72 hrs by MTT assay; details: HT-29, 72 h
[7] = Mean residence time (0 to infinity) in mouse at 20 mg/kg, iv or 35 mg/kg, po administered as single dose by LC/MS/MS analysis; assay type: ADME, organism-based; details: in vivo
[8] = Cytotoxicity against human MKN45 cells after 72 hrs by MTT assay; details: MKN-45, 72 h
MDA-MB-231 = assay: Cytotoxicity against human MDA-MB-231 cells after 72 hrs by MTT assay; assay type: functional, cell-based; details: MDA-MB-231, 72 h
A549 [9] = assay: Cytotoxicity against human A549 cells after 72 hrs by MTT assay; assay type: functional, cell-based; details: A549, 72 h
Mus musculus [10] = assay: Tmax in mouse at 35 mg/kg, po administered as single dose by LC/MS/MS analysis; assay type: ADME, organism-based; details: in vivo
[11] = biological target: Platelet-derived growth factor receptor alpha (Homo sapiens, UniProt P16234); assay: Inhibition of PDGFR-alpha (unknown origin) using poly(glu,Tyr)4:1 as substrate incubated for 30 mins by homogeneous time-resolved fluorescence assay
HT-29 [12] = assay: Antitumor activity against human HT-29 cells xenografted in Balb/c mouse assessed as tumor growth inhibition at 50 mg/kg, po bid for 27 days relative to control; assay type: functional; parameters: scale not given: the % may be the effect or the level left
Mus musculus [13] = assay: Toxicity in Balb/c mouse xenografted with human MKN45 cells assessed as change in body weight at 50 mg/kg, po bid for 24 days; assay type: organism-based, MKN-45; details: in vivo, 576 h
[14] = biological target: Mast/stem cell growth factor receptor Kit (Homo sapiens, UniProt P10721); assay: Inhibition of c-kit (unknown origin) using poly(glu,Tyr)4:1 as substrate incubated for 30 mins by homogeneous time-resolved fluorescence assay
[15] = biological target: Vascular endothelial growth factor receptor 2 (Homo sapiens, UniProt P35968); assay: Inhibition of KDR (unknown origin) using poly(glu,Tyr)4:1 as substrate incubated for 30 mins by homogeneous time-resolved fluorescence assay
[16] = biological target: Macrophage-stimulating protein receptor (Homo sapiens, UniProt Q04912); assay: Inhibition of Ron (unknown origin) using poly(glu,Tyr)4:1 as substrate incubated for 30 mins by homogeneous time-resolved fluorescence assay
PBL = assay: Cytotoxicity against human PBL cells after 72 hrs by MTT assay; assay type: cell-based
HT-29 [17] = assay: Potency index, ratio of IC50 for foretinib to IC50 for test compound for cytotoxicity against human HT-29 cells; assay type: functional
[18] = biological target: Hepatocyte growth factor receptor (Homo sapiens, UniProt P08581); assay: Inhibition of c-Met kinase (unknown origin) using poly(glu,Tyr)4:1 as substrate incubated for 30 mins by homogeneous time-resolved fluorescence assay
[19] = biological target: T1, Receptor-type tyrosine-protein kinase FLT3 (Homo sapiens, UniProt P36888); assay: Inhibition of Flt-3 (unknown origin) using poly(glu,Tyr)4:1 as substrate incubated for 30 mins by homogeneous time-resolved fluorescence assay
T1 sequence (P36888 whole entry): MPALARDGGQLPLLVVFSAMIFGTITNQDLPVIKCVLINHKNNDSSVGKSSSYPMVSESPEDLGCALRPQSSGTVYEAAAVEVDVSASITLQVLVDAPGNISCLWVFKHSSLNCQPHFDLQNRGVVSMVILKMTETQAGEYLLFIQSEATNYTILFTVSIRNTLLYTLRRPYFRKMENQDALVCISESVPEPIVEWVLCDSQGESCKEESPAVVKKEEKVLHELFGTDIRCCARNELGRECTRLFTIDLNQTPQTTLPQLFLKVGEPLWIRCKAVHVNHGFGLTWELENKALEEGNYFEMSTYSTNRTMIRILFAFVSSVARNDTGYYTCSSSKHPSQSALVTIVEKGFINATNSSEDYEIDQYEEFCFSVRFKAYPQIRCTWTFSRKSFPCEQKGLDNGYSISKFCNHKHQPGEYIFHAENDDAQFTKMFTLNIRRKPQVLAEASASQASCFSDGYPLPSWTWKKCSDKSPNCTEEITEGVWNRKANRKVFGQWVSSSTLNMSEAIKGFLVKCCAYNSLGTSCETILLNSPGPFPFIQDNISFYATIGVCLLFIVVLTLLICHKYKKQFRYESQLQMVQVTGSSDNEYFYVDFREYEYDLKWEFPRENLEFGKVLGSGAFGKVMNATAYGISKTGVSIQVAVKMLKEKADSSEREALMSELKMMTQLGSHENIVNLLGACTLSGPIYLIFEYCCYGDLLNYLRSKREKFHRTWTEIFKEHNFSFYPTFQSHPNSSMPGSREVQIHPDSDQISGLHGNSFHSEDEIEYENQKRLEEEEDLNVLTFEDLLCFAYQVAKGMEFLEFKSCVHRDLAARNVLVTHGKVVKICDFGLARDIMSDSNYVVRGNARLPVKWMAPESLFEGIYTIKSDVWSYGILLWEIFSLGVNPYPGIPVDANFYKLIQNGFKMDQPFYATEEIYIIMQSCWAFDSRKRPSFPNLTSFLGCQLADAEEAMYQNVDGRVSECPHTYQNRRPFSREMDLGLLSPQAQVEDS

Mus musculus [20] = assay: Toxicity in Balb/c mouse xenografted with human HT-29 cells assessed as change in body weight at 50 mg/kg, po bid for 27 days; assay type: organism-based; details: in vivo, 648 h
A549 [21] = assay: Potency index, ratio of IC50 for foretinib to IC50 for test compound for cytotoxicity against human A549 cells; assay type: functional
[22] = biological target: Epidermal growth factor receptor (Homo sapiens, UniProt P00533); assay: Inhibition of EGFR (unknown origin) using poly(glu,Tyr)4:1 as substrate incubated for 30 mins by homogeneous time-resolved fluorescence assay
[23] = Antitumor activity against human MKN45 cells xenografted in Balb/c mouse assessed as tumor growth inhibition at 50 mg/kg, po bid for 24 days relative to control; assay type: functional, MKN-45; parameters: scale not given: the % may be the effect or the level left
[24] = Potency index, ratio of IC50 for foretinib to IC50 for test compound for cytotoxicity against human MKN45 cells; assay type: functional, MKN-45

Sequence of Mast/stem cell growth factor receptor Kit (P10721 whole entry): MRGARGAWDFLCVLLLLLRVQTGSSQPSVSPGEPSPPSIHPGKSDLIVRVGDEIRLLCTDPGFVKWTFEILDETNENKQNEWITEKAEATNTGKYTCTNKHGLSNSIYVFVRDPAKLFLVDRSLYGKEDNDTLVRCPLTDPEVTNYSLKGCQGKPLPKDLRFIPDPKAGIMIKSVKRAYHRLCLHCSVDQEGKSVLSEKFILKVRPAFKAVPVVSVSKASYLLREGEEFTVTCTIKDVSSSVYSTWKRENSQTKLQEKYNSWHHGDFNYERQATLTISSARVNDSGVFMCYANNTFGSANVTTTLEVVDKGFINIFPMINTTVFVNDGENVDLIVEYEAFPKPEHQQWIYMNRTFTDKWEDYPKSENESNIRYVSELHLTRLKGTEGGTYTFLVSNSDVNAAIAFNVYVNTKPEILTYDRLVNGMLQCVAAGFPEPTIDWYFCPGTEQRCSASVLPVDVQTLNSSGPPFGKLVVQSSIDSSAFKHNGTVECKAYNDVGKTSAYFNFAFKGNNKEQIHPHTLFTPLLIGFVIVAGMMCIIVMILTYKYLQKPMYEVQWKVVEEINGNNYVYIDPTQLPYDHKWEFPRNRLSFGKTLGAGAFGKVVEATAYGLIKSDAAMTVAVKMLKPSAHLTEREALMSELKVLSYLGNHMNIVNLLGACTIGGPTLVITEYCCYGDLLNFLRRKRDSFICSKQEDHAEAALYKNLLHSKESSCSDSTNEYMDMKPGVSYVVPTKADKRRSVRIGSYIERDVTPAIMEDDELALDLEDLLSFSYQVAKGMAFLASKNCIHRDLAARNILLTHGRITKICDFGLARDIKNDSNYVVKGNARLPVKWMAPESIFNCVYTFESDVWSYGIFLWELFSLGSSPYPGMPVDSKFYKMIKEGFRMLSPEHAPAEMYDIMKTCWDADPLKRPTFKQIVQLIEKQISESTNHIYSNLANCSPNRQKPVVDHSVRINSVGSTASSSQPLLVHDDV
Sequence of Macrophage-stimulating protein receptor (Q04912 25-304 limits assumed): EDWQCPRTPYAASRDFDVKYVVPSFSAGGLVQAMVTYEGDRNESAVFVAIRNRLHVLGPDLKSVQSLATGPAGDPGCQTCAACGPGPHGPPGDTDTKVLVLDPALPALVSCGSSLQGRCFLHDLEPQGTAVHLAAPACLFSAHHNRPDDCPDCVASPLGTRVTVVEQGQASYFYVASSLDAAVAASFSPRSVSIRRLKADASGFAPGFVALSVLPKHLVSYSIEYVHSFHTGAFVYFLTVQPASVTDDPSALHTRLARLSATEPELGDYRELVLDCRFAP
Sequence of Macrophage-stimulating protein receptor (Q04912 310-1400 limits assumed): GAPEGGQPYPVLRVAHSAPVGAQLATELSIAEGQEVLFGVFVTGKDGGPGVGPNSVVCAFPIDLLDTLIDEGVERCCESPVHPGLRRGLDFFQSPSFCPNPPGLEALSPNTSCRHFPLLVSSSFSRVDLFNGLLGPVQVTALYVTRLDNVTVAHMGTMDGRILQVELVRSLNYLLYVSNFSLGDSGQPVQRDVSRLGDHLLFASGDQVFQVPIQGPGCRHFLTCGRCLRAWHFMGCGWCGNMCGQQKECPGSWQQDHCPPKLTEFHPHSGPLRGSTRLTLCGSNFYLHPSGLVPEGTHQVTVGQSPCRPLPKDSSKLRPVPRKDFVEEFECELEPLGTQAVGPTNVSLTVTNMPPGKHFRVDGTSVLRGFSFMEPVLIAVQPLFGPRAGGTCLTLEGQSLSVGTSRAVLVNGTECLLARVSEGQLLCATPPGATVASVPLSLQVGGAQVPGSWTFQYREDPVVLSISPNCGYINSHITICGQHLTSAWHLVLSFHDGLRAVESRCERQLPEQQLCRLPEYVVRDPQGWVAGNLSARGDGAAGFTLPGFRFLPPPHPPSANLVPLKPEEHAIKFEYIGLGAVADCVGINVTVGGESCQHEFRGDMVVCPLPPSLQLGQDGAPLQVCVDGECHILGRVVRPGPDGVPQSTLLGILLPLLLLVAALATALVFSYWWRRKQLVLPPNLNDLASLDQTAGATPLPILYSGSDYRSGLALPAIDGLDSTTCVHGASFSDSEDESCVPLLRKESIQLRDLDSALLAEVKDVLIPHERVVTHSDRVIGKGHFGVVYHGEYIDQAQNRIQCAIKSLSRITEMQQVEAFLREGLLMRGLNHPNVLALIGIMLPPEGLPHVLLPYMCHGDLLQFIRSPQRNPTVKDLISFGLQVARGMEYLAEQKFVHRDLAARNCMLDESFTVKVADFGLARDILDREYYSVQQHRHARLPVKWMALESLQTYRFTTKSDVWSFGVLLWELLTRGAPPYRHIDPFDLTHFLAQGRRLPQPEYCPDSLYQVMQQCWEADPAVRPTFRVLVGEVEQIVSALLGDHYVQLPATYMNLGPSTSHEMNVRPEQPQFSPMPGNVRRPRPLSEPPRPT
Sequence of Vascular endothelial growth factor receptor 2 (P35968 whole entry): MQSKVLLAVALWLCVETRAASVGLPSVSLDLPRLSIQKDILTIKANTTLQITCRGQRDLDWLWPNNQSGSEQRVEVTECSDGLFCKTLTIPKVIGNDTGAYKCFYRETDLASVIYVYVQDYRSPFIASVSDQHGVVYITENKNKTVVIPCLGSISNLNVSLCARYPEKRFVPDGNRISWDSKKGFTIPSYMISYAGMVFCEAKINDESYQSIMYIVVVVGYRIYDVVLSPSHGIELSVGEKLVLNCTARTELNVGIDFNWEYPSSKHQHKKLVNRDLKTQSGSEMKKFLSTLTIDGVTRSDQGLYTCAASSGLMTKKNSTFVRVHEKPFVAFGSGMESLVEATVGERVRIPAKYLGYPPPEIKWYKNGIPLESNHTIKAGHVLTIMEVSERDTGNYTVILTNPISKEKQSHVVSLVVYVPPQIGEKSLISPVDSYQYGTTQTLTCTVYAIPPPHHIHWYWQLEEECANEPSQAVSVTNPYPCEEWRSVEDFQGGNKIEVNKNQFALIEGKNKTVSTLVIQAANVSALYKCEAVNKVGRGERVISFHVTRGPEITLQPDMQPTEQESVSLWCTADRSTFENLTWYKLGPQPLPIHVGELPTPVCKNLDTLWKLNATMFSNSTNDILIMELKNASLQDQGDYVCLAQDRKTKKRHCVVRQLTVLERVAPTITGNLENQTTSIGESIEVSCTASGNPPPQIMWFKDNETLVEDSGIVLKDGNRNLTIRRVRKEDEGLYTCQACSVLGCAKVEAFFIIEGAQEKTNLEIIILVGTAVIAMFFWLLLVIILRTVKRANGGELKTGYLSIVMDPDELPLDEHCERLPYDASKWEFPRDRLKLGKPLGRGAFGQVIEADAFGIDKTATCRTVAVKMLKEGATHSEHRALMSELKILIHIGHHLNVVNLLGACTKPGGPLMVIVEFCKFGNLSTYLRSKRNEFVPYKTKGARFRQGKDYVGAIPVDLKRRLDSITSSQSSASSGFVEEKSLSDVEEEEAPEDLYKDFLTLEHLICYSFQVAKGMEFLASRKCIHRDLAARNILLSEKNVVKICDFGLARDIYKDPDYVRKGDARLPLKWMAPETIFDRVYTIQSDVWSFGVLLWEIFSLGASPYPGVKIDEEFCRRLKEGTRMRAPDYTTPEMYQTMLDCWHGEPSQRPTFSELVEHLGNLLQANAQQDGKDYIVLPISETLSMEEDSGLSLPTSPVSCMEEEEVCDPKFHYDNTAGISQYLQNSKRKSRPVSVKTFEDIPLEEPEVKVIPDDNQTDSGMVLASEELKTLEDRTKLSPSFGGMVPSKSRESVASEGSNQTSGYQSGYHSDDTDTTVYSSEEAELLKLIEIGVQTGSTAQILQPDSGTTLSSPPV
Sequence of Epidermal growth factor receptor (P00533 whole entry): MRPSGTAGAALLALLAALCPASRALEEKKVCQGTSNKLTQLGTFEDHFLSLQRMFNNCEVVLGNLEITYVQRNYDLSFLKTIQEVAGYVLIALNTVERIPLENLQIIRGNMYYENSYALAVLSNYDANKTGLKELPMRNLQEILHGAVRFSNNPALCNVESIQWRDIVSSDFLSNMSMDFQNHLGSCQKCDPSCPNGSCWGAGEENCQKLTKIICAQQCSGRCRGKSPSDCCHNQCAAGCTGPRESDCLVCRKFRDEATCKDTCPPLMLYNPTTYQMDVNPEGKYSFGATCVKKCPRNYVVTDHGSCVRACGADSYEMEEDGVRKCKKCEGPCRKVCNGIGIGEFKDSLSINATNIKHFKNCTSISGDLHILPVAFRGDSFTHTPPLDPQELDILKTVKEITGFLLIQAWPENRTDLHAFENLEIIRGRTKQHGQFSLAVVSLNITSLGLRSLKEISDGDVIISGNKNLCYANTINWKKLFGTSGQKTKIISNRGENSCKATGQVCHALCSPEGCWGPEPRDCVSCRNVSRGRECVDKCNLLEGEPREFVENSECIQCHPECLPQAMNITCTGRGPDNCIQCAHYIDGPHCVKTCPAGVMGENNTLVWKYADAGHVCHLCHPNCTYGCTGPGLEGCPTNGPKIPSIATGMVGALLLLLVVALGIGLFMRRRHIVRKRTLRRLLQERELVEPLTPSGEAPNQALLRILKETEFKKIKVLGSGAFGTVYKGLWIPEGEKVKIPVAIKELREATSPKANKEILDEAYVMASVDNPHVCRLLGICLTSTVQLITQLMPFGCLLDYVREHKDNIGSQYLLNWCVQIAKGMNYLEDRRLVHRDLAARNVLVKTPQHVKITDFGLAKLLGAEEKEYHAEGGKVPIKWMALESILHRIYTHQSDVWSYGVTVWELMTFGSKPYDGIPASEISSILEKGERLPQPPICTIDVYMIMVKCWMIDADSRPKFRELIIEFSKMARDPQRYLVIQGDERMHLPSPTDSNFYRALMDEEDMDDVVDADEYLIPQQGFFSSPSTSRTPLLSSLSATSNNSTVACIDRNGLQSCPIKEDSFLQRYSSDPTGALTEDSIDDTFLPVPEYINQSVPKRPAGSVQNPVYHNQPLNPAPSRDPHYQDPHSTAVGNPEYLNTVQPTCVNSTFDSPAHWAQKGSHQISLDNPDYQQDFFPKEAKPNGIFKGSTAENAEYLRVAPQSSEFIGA

Row | SMILES | AUC (Mus musculus [1]) [µg·h/mL] | t1/2 (Mus musculus [2]) [h] | Cmax (Mus musculus [4]) [µg/mL] | Vd/F [5] [L/kg] | IC50 (HT-29 [6]) [µM] | MRT inf [7] [h] | IC50 [8] [µM] | IC50 (MDA-MB-231) [µM] | IC50 (A549 [9]) [µM] | Tmax (Mus musculus [10]) [h] | further results
1 | COc1cc2c(Oc3ccc(NC(=O)N/N=C/c4ccc(F)cc4Cl)cc3F)ccnc2cc1OCCCN1CCCCC1 | 0.91 | 3.3 | 0.078 | 371 | 0.26 | 13.2 | 0.27 | 0.79 | 0.13 | 0.75 | CL/F (Mus musculus [3]): 80.02 L/h/kg
2 | C=CCc1cccc(/C=N/NC(=O)Nc2ccc(Oc3ccnc4cc(OCCCN5CCCCC5)c(OC)cc34)c(F)c2)c1O | 16.5 | 13.75 | 0.68 | 43.9 | 0.027 | 23.4 | 0.039 | 0.44 | 0.011 | 6 | IC50 [11]: 0.212 µM; Activity (HT-29 [12]): 65.86%; Activity (Mus musculus [13]): Non-toxic; IC50 [14]: 0.163 µM; IC50 [15]: 0.21 µM; IC50 [16]: 0.0145 µM; IC50 (PBL): 107 µM; Ratio IC50 (HT-29 [17]): 9.6; IC50 [18]: 0.00154 µM; IC50 [19]: 0.367 µM; Activity (Mus musculus [20]): Non-toxic; Ratio IC50 (A549 [21]): 15.4; IC50 [22]: > 100 µM; Activity [23]: 70.18%; Ratio IC50 [24]: 1.7
